# Test results: ChEMBL document CHEMBL1152860, “Synthesis and antiproliferative activity of 3-amino-N-phenyl-1H-indazole-1-carboxamides” (2009)
# Calls of active or inactive are those of the source. The rule behind the calls is not given here.
# Tests used:
# HT-29 = test: Growth inhibition of human HT-29 cells after 48 hrs by SRB assay; format: functional; details: HT-29, 48 h
# SR [1] = test: Cell cycle arrest in human SR cells assessed as accumulation at G0/G1 phase at 0.0153 uM after 24 hrs using propidium iodide staining by flow cytometry; format: functional, cell-based
# K562 = test: Growth inhibition of human K562 cells after 48 hrs by SRB assay; format: functional; details: K562, 48 h
# MOLT-4 = test: Growth inhibition of human MOLT4 cells after 48 hrs by SRB assay; format: functional; details: MOLT-4, 48 h; for CC50: read-out: LC50 (the source's name)
# SR [2] = test: Growth inhibition of human SR cells after 48 hrs by SRB assay; format: functional
# A549 = test: Growth inhibition of human A549 cells after 48 hrs by SRB assay; format: functional; details: A549, 48 h
# EKVX = test: Growth inhibition of human EKVX cells after 48 hrs by SRB assay; format: functional
# HOP-92 = test: Growth inhibition of human HOP92 cells after 48 hrs by SRB assay; format: functional; details: HOP-92, 48 h
# NCI-H226 = test: Growth inhibition of human NCI-H226 cells after 48 hrs by SRB assay; format: functional; details: NCI-H226, 48 h
# NCI-H23 = test: Growth inhibition of human NCI-H23 cells after 48 hrs by SRB assay; format: functional; details: NCI-H23, 48 h
# NCI-H322M = test: Growth inhibition of human NCI-H322M cells after 48 hrs by SRB assay; format: functional
# NCI-H460 = test: Growth inhibition of human NCI-H460 cells after 48 hrs by SRB assay; format: functional; details: NCI-H460, 48 h
# COLO 205 = test: Growth inhibition of human COLO205 cells after 48 hrs by SRB assay; format: functional; details: COLO 205, 48 h
# HCC 2998 = test: Growth inhibition of human HCC2998 cells after 48 hrs by SRB assay; format: functional; details: HCC 2998, 48 h
# HCT-116 = test: Growth inhibition of human HCT116 cells after 48 hrs by SRB assay; format: functional; details: HCT-116, 48 h
# HCT-15 = test: Growth inhibition of human HCT15 cells after 48 hrs by SRB assay; format: functional; details: HCT-15, 48 h
# Malme-3M = test: Growth inhibition of human MALME-3M cells after 48 hrs by SRB assay; format: functional
# M14 = test: Growth inhibition of human M14 cells after 48 hrs by SRB assay; format: functional; details: M14, 48 h
# SK-MEL-28 = test: Growth inhibition of human SK-MEL-28 cells after 48 hrs by SRB assay; format: functional; details: SK-MEL-28, 48 h
# SK-MEL-5 = test: Growth inhibition of human SK-MEL-5 cells after 48 hrs by SRB assay; format: functional; details: SK-MEL-5, 48 h
# IGROV-1 = test: Growth inhibition of human IGROV1 cells after 48 hrs by SRB assay; format: functional; details: IGROV-1, 48 h
# OVCAR-4 = test: Growth inhibition of human OVCAR4 cells after 48 hrs by SRB assay; format: functional; details: OVCAR-4, 48 h
# OVCAR-5 = test: Growth inhibition of human OVCAR5 cells after 48 hrs by SRB assay; format: functional; details: OVCAR-5, 48 h
# OVCAR-8 = test: Growth inhibition of human OVCAR8 cells after 48 hrs by SRB assay; format: functional; details: OVCAR-8, 48 h
# SK-OV-3 = test: Growth inhibition of human SKOV3 cells after 48 hrs by SRB assay; format: functional; details: SK-OV-3, 48 h
# 786-0 = test: Growth inhibition of human 786-0 cells after 48 hrs by SRB assay; format: functional; details: 786-0, 48 h
# A498 = test: Growth inhibition of human A498 cells after 48 hrs by SRB assay; format: functional; details: A498, 48 h
# ACHN = test: Growth inhibition of human ACHN cells after 48 hrs by SRB assay; format: functional
# CAKI-1 = test: Growth inhibition of human Caki1 cells after 48 hrs by SRB assay; format: functional; details: CAKI-1, 48 h
# SN12C = test: Growth inhibition of human SN12C cells after 48 hrs by SRB assay; format: functional
# TK-10 = test: Growth inhibition of human TK10 cells after 48 hrs by SRB assay; format: functional; details: TK-10, 48 h
# UO-31 = test: Growth inhibition of human UO31 cells after 48 hrs by SRB assay; format: functional; details: UO-31, 48 h
# PC-3 = test: Growth inhibition of human PC3 cells after 48 hrs by SRB assay; format: functional; details: PC-3, 48 h
# DU-145 = test: Growth inhibition of human DU145 cells after 48 hrs by SRB assay; format: functional; details: DU-145, 48 h
# MCF7 = test: Growth inhibition of human MCF7 cells after 48 hrs by SRB assay; format: functional; details: MCF7, 48 h
# NCI/ADR-RES = test: Growth inhibition of human NCI/ADR-RES cells after 48 hrs by SRB assay; format: functional
# MDA-MB-231 = test: Growth inhibition of human MDA-MB-231 cells after 48 hrs by SRB assay; format: functional; details: MDA-MB-231, 48 h
# [3] = Growth inhibition of human Hs 578T cells after 48 hrs by SRB assay; format: functional
# MDA-MB-435 = test: Growth inhibition of human MDA-MB-435 cells after 48 hrs by SRB assay; format: functional; details: MDA-MB-435, 48 h
# BT-549 = test: Growth inhibition of human BT549 cells after 48 hrs by SRB assay; format: functional; details: BT-549, 48 h
# T47D = test: Growth inhibition of human T47D cells after 48 hrs by SRB assay; format: functional
# KM12 = test: Growth inhibition of human KM12 cells after 48 hrs by SRB assay; format: functional; details: KM12, 48 h
# SF-268 = test: Growth inhibition of human SF268 cells after 48 hrs by SRB assay; format: functional; details: SF-268, 48 h
# SF-539 = test: Growth inhibition of human SF539 cells after 48 hrs by SRB assay; format: functional; details: SF-539, 48 h
# SNB-19 = test: Growth inhibition of human SNB19 cells after 48 hrs by SRB assay; format: functional; details: SNB-19, 48 h
# SNB-75 = test: Growth inhibition of human SNB75 cells after 48 hrs by SRB assay; format: functional; details: SNB-75, 48 h
# U-251 = test: Growth inhibition of human U251 cells after 48 hrs by SRB assay; format: functional; details: U-251, 48 h
# [4] = read-out: LC50 (the source's name)
structure (smiles),measurement,setting,value
Nc1nn(C(=O)Nc2ccc(Cc3ccccc3)cc2)c2ccccc12,GI50,HT-29,2.39 µM
same,TGI,HT-29,17.6 µM
same,CC50,HT-29; [4],56.3 µM
same,Activity,SR [1],Active
same,GI50,K562,1.2 µM
same,LC50 (concentration killing 50% of cells),K562,> 100 µM
same,TGI,K562,33.8 µM
same,GI50,MOLT-4,0.636 µM
same,TGI,MOLT-4,20.4 µM
same,CC50,MOLT-4,> 100 µM
same,GI50,SR [2],0.0153 µM
same,TGI,SR [2],82.2 µM
same,CC50,SR [2]; [4],34.8 µM
same,GI50,A549,12.9 µM
same,GI50,EKVX,11.2 µM
same,GI50,HOP-92,14.2 µM
same,GI50,NCI-H226,13.5 µM
same,GI50,NCI-H23,16.8 µM
same,GI50,NCI-H322M,27.8 µM
same,GI50,NCI-H460,0.408 µM
same,TGI,NCI-H460,13 µM
same,CC50,NCI-H460; [4],84.6 µM
same,GI50,COLO 205,13.4 µM
same,GI50,HCC 2998,4.27 µM
same,GI50,HCT-116,7.03 µM
same,GI50,HCT-15,1.08 µM
same,TGI,HCT-15,> 100 µM
same,CC50,HCT-15; [4],> 100 µM
same,GI50,Malme-3M,19.2 µM
same,GI50,M14,0.772 µM
same,TGI,M14,> 100 µM
same,CC50,M14; [4],> 100 µM
same,GI50,SK-MEL-28,11.5 µM
same,GI50,SK-MEL-5,2.22 µM
same,TGI,SK-MEL-5,8.64 µM
same,CC50,SK-MEL-5; [4],34.3 µM
same,GI50,IGROV-1,6.98 µM
same,GI50,OVCAR-4,10.7 µM
same,GI50,OVCAR-5,31.3 µM
same,GI50,OVCAR-8,21.9 µM
same,GI50,SK-OV-3,36.9 µM
same,GI50,786-0,3.76 µM
same,GI50,A498,16.7 µM
same,GI50,ACHN,1.69 µM
same,TGI,ACHN,33.4 µM
same,CC50,ACHN; [4],> 100 µM
same,GI50,CAKI-1,21.1 µM
same,GI50,SN12C,12.9 µM
same,GI50,TK-10,27.2 µM
same,GI50,UO-31,0.347 µM
same,TGI,UO-31,> 100 µM
same,CC50,UO-31; [4],> 100 µM
same,GI50,PC-3,13.5 µM
same,GI50,DU-145,1.02 µM
same,TGI,DU-145,28.3 µM
same,CC50,DU-145; [4],> 100 µM
same,GI50,MCF7,0.555 µM
same,TGI,MCF7,8.82 µM
same,CC50,MCF7; [4],89.1 µM
same,GI50,NCI/ADR-RES,7.87 µM
same,GI50,MDA-MB-231,0.847 µM
same,TGI,MDA-MB-231,43.9 µM
same,CC50,MDA-MB-231; [4],> 100 µM
same,GI50,[3],17.2 µM
same,GI50,MDA-MB-435,2.82 µM
same,TGI,MDA-MB-435,> 100 µM
same,CC50,MDA-MB-435; [4],> 100 µM
same,GI50,BT-549,13.5 µM
same,GI50,T47D,1.55 µM
same,TGI,T47D,> 100 µM
same,CC50,T47D; [4],> 100 µM
same,GI50,KM12,2.94 µM
same,TGI,KM12,> 100 µM
same,CC50,KM12; [4],> 100 µM
same,GI50,SF-268,4.66 µM
same,GI50,SF-539,0.495 µM
same,TGI,SF-539,5.36 µM
same,CC50,SF-539; [4],> 100 µM
same,GI50,SNB-19,22.8 µM
same,GI50,SNB-75,17 µM
same,GI50,U-251,13.9 µM
CCCCOc1ccc(NC(=O)n2nc(N)c3ccccc32)cc1,GI50,HT-29,13.5 µM
same,Activity,SR [1],Active
same,GI50,K562,15.9 µM
same,GI50,MOLT-4,4.48 µM
same,TGI,MOLT-4,46.2 µM
same,CC50,MOLT-4,> 100 µM
same,GI50,SR [2],16 µM
same,GI50,A549,23.5 µM
same,GI50,EKVX,13.3 µM
same,GI50,HOP-92,18.6 µM
same,GI50,NCI-H226,21.2 µM
same,GI50,NCI-H23,19.4 µM
same,GI50,NCI-H322M,20.6 µM
same,GI50,NCI-H460,15.7 µM
same,GI50,COLO 205,13.9 µM
same,GI50,HCC 2998,19 µM
same,GI50,HCT-116,19.9 µM
same,GI50,HCT-15,15.5 µM
same,GI50,Malme-3M,14.7 µM
same,GI50,M14,18.6 µM
same,GI50,SK-MEL-28,32.6 µM
same,GI50,SK-MEL-5,15.2 µM
same,GI50,IGROV-1,35.5 µM
same,GI50,OVCAR-4,30.7 µM
same,GI50,OVCAR-5,20 µM
same,GI50,OVCAR-8,35.9 µM
same,GI50,SK-OV-3,44 µM
same,GI50,786-0,21 µM
same,GI50,A498,19 µM
same,GI50,ACHN,22.8 µM
same,GI50,CAKI-1,28.3 µM
same,GI50,SN12C,23.1 µM
same,GI50,TK-10,24.2 µM
same,GI50,UO-31,17.5 µM
same,GI50,PC-3,14.9 µM
same,GI50,DU-145,25 µM
same,GI50,MCF7,14.5 µM
same,GI50,NCI/ADR-RES,23.7 µM
same,GI50,MDA-MB-231,13.8 µM
same,GI50,[3],20.2 µM
same,GI50,MDA-MB-435,19.1 µM
same,GI50,BT-549,14 µM
same,GI50,T47D,14.8 µM
same,GI50,KM12,11.3 µM
same,GI50,SF-268,25.8 µM
same,GI50,SF-539,17.8 µM
same,GI50,SNB-19,42.7 µM
same,GI50,SNB-75,28.6 µM
same,GI50,U-251,30.5 µM
